In article PMC11088557 (Clinical Drug Investigation, 2024):
“And” between values parts separate entries of the source, which are not always exact repeats. Equal values may be shown once.

What was measured:
[1] = combination vs MCC alone
CYP2C19 = conditions: in vitro study; cited from earlier work
[2] = cited from earlier work
CYP2C9 = conditions: in vitro study; cited from earlier work
CYP2B6 = conditions: published in vitro study; cited from earlier work
[3] = cited from earlier work; remark: listed apart in the source
CYP1A2 = conditions: cited from earlier work
CYP2D6 = conditions: cited from earlier work
CYP2C8 = conditions: in vitro study; cited from earlier work
[4] = viloxazine ER 900 mg qd, steady state
[5] = viloxazine ER 900 mg/day from Day 3; Day 4; p values > 0.05
CYP3A4 = conditions: cited from earlier work

For `COc1ccc2c(c1)[C@]13CCCC[C@@H]1[C@H](C2)N(C)CC3` [Dextromethorphan, dextromethorphan], the “prolongation of median Tmax with viloxazine ER vs MCC alone” value [1] was 1 h.
For `CCOc1ccccc1OCC1CNCCO1` (stereo not shown) [viloxazine], the “in vitro inhibition of CYP2C19” value (CYP2C19) is listed as “no meaningful inhibition”, the “5-hydoxyviloxazine metabolites, share of the metabolized fraction of the drug” value [2] is listed as “about 50%” and the dose excreted unchanged [2] is listed as “approximately 22%”. For the same compound, the “in vitro inhibition of CYP2C9” value (CYP2C9) was “no meaningful inhibition”, the “in vitro inhibition of CYP2B6” value (CYP2B6) was “weak inhibitor” and the “change in Cmax when coadministered with paroxetine” value [3] was “no changes”. The “increase in AUC when coadministered with paroxetine” value [3] was < 35%, the ki (CYP1A2; in vitro, [caffeine]) was 0.124 µg/mL and the “in vitro inhibition of CYP1A2” value (CYP1A2; published in vitro study) was “strong, reversible inhibitor”. For the same compound, the ki (CYP2D6; in vitro, [dextromethorphan]) was 12.7 µg/mL, the “in vitro inhibition of CYP2D6” value (CYP2D6; published in vitro study) was “weak inhibitor” and the “in vitro inhibition of CYP2C8” value (CYP2C8) was “no meaningful inhibition”. The “AUC24 higher in CYP2D6 PMs than EMs” value [4] was 26% and 25%, the “Cmax higher in CYP2D6 PMs than EMs” value [4] was 21% and the “Cmin higher in CYP2D6 PMs than EMs” value [4] was 33%. The “attainment of steady state” value [5] was “second day of dosing”, the ki (CYP3A4; in vitro, [midazolam]) was 26.8 µg/mL and the “in vitro inhibition of CYP3A4/5” value (CYP3A4; published in vitro study) was “weak inhibitor”.
